{
  "source": "patent EP0462831B1",
  "about": "“Bicyclic pyran derivatives and their use as inhibitors of 5-lipoxygenase” (ZENECA LIMITED, priority 1990, dated 1991)",
  "key": {"[1]": {"target": "T1, 5-LO (Homo sapiens, UniProt P09917)", "T1 construct": "incubating a test compound with heparinised human blood, prior to challenge with the calcium ionophore A23187; endogenous in cells; host or cells: blood cells in heparinised human whole blood", "T1 sequence (P09917 1-674)": "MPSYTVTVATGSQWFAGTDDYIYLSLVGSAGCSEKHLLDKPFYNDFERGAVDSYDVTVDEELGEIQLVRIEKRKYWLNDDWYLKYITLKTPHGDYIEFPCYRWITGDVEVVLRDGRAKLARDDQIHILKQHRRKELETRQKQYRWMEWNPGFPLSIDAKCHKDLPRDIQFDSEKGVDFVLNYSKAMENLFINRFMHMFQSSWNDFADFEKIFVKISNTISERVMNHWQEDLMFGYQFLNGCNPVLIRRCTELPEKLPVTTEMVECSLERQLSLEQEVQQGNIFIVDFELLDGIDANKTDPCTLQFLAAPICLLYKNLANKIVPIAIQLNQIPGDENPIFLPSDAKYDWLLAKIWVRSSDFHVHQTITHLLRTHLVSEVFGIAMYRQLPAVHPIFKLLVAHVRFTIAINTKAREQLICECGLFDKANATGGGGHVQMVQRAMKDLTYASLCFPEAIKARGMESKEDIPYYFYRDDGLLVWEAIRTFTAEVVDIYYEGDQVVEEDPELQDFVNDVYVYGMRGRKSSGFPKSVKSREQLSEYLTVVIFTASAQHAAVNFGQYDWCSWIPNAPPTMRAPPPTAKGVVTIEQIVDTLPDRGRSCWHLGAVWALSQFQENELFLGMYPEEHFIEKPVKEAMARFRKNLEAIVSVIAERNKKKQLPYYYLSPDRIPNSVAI", "test": "Test b): heparinised human blood challenged with calcium ionophore A23187, radioimmunoassay of LTB₄", "assay_type": "cell-based", "conditions": "A23187 challenge, read-out: IC₅₀ (LTB₄)", "method": "As stated previously, the novel compounds of the formula I are inhibitors of the enzyme 5-LO. […] This test provides a measure of the intrinsic inhibitory properties of a test compound against soluble 5-LO in an extracellular environment. • b) An in vitro assay system involving incubating a test compound with heparinised human blood, prior to challenge with the calcium ionophore A23187 and then indirectly measuring the inhibitory effects on 5-LO by assaying the amount of LTB₄ using specific radioimmunoassays described by Carey and Forder (F. Carey and R.A. Forder, Prostaglandins, Leukotrienes Med., 1986, 22, 57; Prostaglandins, 1984, 28, 666; Brit. J. Pharmacol. 1985, 84, 34P) which involve the use of a protein-LTB₄ conjugate produced using the procedure of Young et alia (Prostaglandins, 1983, 26(4), 605-613). The effects of a test compound on the enzyme cyclooxygenase (which is involved in the alternative metabolic pathway for arachidonic acid and gives rise to prostaglandins, thromboxanes and related metabolites) may be measured at the same time using the specific radioimmunoassay for thromboxane B₂(TxB₂) described by Carey and Forder (see above). This test provides an indication of the effects of a test compound against 5-LO and also cyclooxygenase in the presence of blood cells and proteins. […]"}, "[2]": {"target": "T2, 5-LO (Rattus norvegicus, UniProt P12527)", "T2 construct": "liberation of LTB₄ induced by zymosan within an air pouch generated within the subcutaneous tissue of the back of male rats; from tissue; host or cells: subcutaneous air pouch of male rats (in vivo)", "T2 sequence (P12527 1-673)": "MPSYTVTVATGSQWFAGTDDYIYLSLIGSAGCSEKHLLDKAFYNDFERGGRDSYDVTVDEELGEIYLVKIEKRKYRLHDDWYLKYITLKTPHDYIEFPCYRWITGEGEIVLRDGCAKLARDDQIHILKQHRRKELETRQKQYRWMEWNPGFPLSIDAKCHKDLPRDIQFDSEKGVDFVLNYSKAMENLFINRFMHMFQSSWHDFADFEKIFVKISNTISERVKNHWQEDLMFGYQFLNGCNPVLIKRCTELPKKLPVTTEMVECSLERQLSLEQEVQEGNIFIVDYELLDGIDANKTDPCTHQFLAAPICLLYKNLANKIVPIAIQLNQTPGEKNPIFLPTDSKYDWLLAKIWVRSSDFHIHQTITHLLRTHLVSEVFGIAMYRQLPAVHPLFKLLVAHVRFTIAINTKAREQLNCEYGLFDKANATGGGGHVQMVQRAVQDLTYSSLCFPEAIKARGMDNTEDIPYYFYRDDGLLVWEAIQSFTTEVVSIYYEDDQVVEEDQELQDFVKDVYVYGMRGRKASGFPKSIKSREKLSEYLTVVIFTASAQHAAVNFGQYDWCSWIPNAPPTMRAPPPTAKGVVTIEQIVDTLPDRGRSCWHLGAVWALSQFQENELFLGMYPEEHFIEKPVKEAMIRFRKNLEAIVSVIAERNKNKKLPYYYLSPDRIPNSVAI", "test": "Test g): zymosan-induced liberation of LTB₄ in a subcutaneous air pouch", "assay_type": "in vivo, rats", "conditions": "oral, 3 hours, read-out: oral ED₅₀(LTB₄)"}},
  "data": [
    {"smiles": "COC1(c2cccc(Sc3ccc4c(c3)n(C)c(=O)n4C)c2)CCOCC1", "note": "[Example 1, 4-[3-(1,3-dimethyl-2-oxo-2,3-dihydrobenzimidazol-5-ylthio)phenyl]-4-methoxy-tetrahydropyran]", "values": [
      {"measurement": "IC50", "setting": "[1]", "result": 50, "unit": "nM"},
      {"measurement": "ED50", "setting": "[2]", "result": "< 2", "unit": "mg/kg"}
    ]}
  ]
}
